Laboratory results taken from patent US10400242B2, “Methods for treating acute myeloid leukemia and nanoparticle complexes of miR-22 utilized therein” (University of Cincinnati, priority 2016, dated 2019).

B1: G7-FLT3L dendrimers: FLT3L-conjugated Generation 7 (G7) PAMAM dendrimers, Cy5.5-labelled, targeting FLT3 on AML cells (conjugate)
chain: TQDCSFQHSPISSDFAVKIRELSDYLLQDYPVTVASNLQDEELCGGLWRLVLAQRWMERLKTVAGSKMQGLLERVNTEIHFVTKCAFQPPPSCLRFVQTNISRLLQETSEQLVALKPWITRQNFSRCLELQCQPDSSTLPPPWSPRPLEATAPTA

Experiments:
THP-1 cells = assay: ATRA-treatment study, gene expression (qPCR) in THP-1 cells; format: cell-based, human; details: 1 μM ATRA, 72 hours, vs DMSO
Method: Total RNA was extracted with the miRNeasy extraction kit (Qiagen, Valencia, Calif.) and was used as template to synthesize cDNA for quantitative RT-PCR (qPCR) analysis in a 7900HT real-time PCR system (Applied Biosystems, Foster City, Calif.). TaqMan qPCR assay was performed to validate the differential expression patterns of miR-22 using commercial kits from Applied Biosystems (Cat. #4427975). Sequences for the controls are: sno202: 5′-[…]-3′ (SEQ ID NO: 1); RNU6B: 5′-[…]-3′ (SEQ ID NO: 4). qPCR with SYBR Green dye (Qiagen) was used to determine expression of mRNA genes. snoRNA202, RNU48, Gapdh or GAPDH were used as endogenous controls for qPCR of miRNA and mRNA, respectively. Each sample was run in triplicate. qPCR primers are available upon request. For determining the miR-22 DNA locus copy number, TaqMan qPCR assay was used as described previously^57.
(§1) For the ATRA-treatment study, THP-1 cells were seeded at a concentration of 0.4×10^6/mL and treated with ATRA (1 μmol/L) or vehicle control (DMSO, 0.001%) for 72 hours before cells were collected for RNA analysis or CUP assays.

miR-22 promoter region = assay: ChIP-qPCR of miR-22 promoter region in ATRA-treated THP-1 cells; format: cell-based, human; details: 1 μM ATRA, 72 hours
Method: as §1
ChIP assay was performed, as described previously^14, 17, with SABiosciences Corporation's ChampionChiP™ One-Day kit (Qiagen, Frederick, Md.) following the manufacturer's protocol, with some modifications. Briefly, pellets of 5×10^6 cells were treated with fresh fixing buffer (1% formaldehyde) for 10 min at 37° C. to crosslink DNA and proteins. The reaction was terminated by the addition of stop buffer and incubated at room temperature for 5 min. After cell lysis, the cross-linked chromatin was sonicated to an average size of ˜500 bp and was immunoprecipitated with antibodies against TET1, GFI1 (Santa Cruz Biotechnology Inc., Santa Cruz, Calif.), the N′-terminal portion of MLL (MLL-N), the C′-terminal of MLL (MLL-C), H3K27Me3, H3K4Me3, RNA polymerase II, EZH2, SIN3A or IgG (Abcam, Cambridge, Mass.). Purified ChIP DNA was amplified by real-time qPCR using specific primers targeting the CpG-enriched upstream region of human miR-22: Forward: 5′-GTT GTT GGA GTC GTG AGT G-3′ (SEQ ID NO: 15); reverse: 5′-CGC TCC ACC TTT CCT TAA A-3′ (SEQ ID NO: 16); or mouse miR-22: Forward: 5′-TGA ATG GGC GGG AGT AA-3′ (SEQ ID NO: 17); reverse: 5′-CCAC GAG CTG CGA ATG AA-3′ (SEQ ID NO: 18).

miR-22 promoter = assay: Bisulfite sequencing of miR-22 promoter in ATRA-treated THP-1 cells; format: cell-based, human; details: 1 μM ATRA or DMSO, 72 hrs
MONOMAC-6 cells [1] = assay: Viability and apoptosis of MONOMAC-6 cells treated with dendrimers; format: cell-based, human; details: compared with PBS
U937 cells = assay: Cellular uptake of dendrimers in U937 cells; format: cell-based; details: U937 cells (very low levels of FLT)
Excerpt: (§2) In order to selectively deliver miR-22 oligos to FLT3-expressing AML cells, Poly(amidoamine) (PAMAM) dendrimers (Hong S, et al. Bioconjugate Chemistry. 2006; 17:728-34, Hong S, et al. Bioconjugate Chemistry. 2009; 20:1503-13, and Sunoqrot S, et al. J Control Release. 2014; 191:115-22, incorporated herein by reference) are selected as the basis of the nanoparticle carriers, and conjugated with the near-infrared dye Cyanine 5.5 (Cy5.5) for monitoring the dynamic distributions of the nanoparticles, and FLT3 ligand (FLT3L) proteins for specific targeting FLT3 on the cell surface. H2B, a nuclear histone protein with similar molecular weight as FLT3L, was conjugated as a negative control. G7-FLT3L dendrimers will efficiently and selectively target AML cells with FLT3 overexpression.

MONOMAC-6 cells [2] = assay: Cellular uptake of dendrimers in MONOMAC-6 cells; format: cell-based, human
Excerpt: as §2

Molecule | WDR81 level (THP-1 cells) | expression of TET1, EZH2 and SIN3A (THP-1 cells) | expression of TET2 or TET3 (down-regulation) (THP-1 cells) | increase in miR-22 expression level (THP-1 cells) | transcription level of GFI1 (THP-1 cells) | H3K4Me3 modifications at miR-22 promoter region (miR-22 promoter region) | H3K27me3 modifications at miR-22 promoter region (miR-22 promoter region) | RNA polymerase II occupancy at miR-22 promoter region (miR-22 promoter region) | binding of GFI1, TET1, EZH2 and SIN3A to the miR-22 promoter region (miR-22 promoter region) | binding of MLL protein to the miR-22 promoter region (reduction) (miR-22 promoter region) | methylation status of the miR-22 promoter (miR-22 promoter) | viability and apoptosis (cytotoxicity) (MONOMAC-6 cells [1]) | uptake ratios, G7-FLT3L vs G7-H2B (U937 cells) | one-hour uptake ratio (MONOMAC-6 cells [2]; FLT3-overexpressing AML cells, one hour) | uptake ratio after suppression of endogenous FLT3 expression (MONOMAC-6 cells [2]; MONOMAC-6 cells overexpressing miR-22) | uptake ratio after 24 hours' treatment (MONOMAC-6 cells [2]; MONOMAC-6 cells, 24 hours, G7-FLT3L vs G7-H2B control)
CC1=C(/C=C/C(C)=C/C=C/C(C)=C/C(=O)O)C(C)(C)CCC1 [ATRA, all-trans-retinoic acid] | no significant effects | significantly down-regulated | not | more than 5 fold | substantially reduced | no significant change | significantly decreased | increased | remarkably reduced | not | hypomethylated |  |  |  |  | 
B1 |  |  |  |  |  |  |  |  |  |  |  | low, if any, cytotoxicity | no significant difference | 23.6% | significant decrease | significantly higher
